In patent publication EP0733369A1, “Protease inhibitors, a DNA construct for the expression of a protease and a process for measuring proteases and/or protease inhibitors” (Stichting REGA V.Z.W., priority 1995, dated 1996):
“Also recorded” adds a separate entry of the source. Structures can show the parent of a compound that is named as a salt.

Target: gelatinase B from neutrophils (Homo sapiens, UniProt P14780)
Assay: gelatinase (inhibitor) microtiter plate assay with biotinylated gelatin
Type: biochemical
Set-up: endogenous in cells; host or cells: human neutrophils stimulated with lipopolysaccharide; conditioned medium
Details: for gelatinase B inhibitory activity in the plate assay (in words): qualitative statements
Experimental: The measurement of gelatinase activity was based on the detection of non-degraded biotinylated gelatin with a streptavidin-peroxidase conjugate. This test is based on the biotin-avidin method described by Sorbi et al. (25) but modified to a one plate assay (schematically represented in Fig. 1.). Gelatin (1mg/ml) was dissolved in 0.1 M sodium bicarbonate pH 8.3 by heating to 40°C. Biotin-N-hydroxysuccinimide ester was dissolved in dimethylsulfoxide (Me2SO) and was added to the gelatin in a 15-fold molar excess. The mixture was allowed to react overnight at 4°C and the biotinylated gelatin was then dialyzed against phosphate buffered saline (PBS). Neutrophil granulocyte (Neu) medium was collected from human neutrophils after stimulation with lipopolysaccharide (1µg/ml) overnight at 37°C in Minimal Essential Medium. Cells were removed by 10 min centrifugation at 1000 g. Purified gelatinase was obtained by one-step affinity chromatography of neutrophil medium on a gelatin-sepharose column as described (8).
Modified flat bottom 96-well ELISA plates were coated overnight with 0.5 µg/ml avidin in distilled water. The plates were then blocked with 0.3% bovine serum albumin (BSA, Sigma) in PBS for 1 hour at 37°C. Biotinylated gelatin was diluted to 50 µg/ml and 100µl was added to the avidin-coated wells. After incubation for one hour at 20°C, the plate was rinsed with PBS. Medium containing the secreted gelatinases from human neutrophils (dilution range 1/3-1/3^11) and the inhibitors were diluted in incubation buffer (50 mM Tris-HCl pH 7.5, 10 mM CaCl2, 0.02% (W/V) NaN3, 1% (V/V) Triton X-100) and 100 µl of each were mixed. 190 µl of the mixture was added to the gelatin-coated plates and allowed to digest the gelatin overnight at 37°C. The plates were then washed with PBS and each well was incubated with 100 µl peroxidase-conjugated-streptavidin at a 1:2000 dilution for 1 hour at 37°C. After rinsing the plate, the ABTS substrate was added (0.5 mg/ml solution containing 0.1 M citric acid, 0.2 M Na2HPO4, pH 4.3, 0.07 µl/ml 30% H2O2) and the optical density was read at 405 nm after 10 min. incubation at room temperature. Additional information on published test systems used here for comparison.
Gelatin is biotinylated and bound to avidin-coated microtiter plates. By addition of gelatinases the number of free biotin groups decreases and proportionally less streptavidin-peroxidase is bound to the residual substrate. Bound streptavidin-peroxidase activity is measured spectrophotometrically by reaction of peroxide with ABTS. Inhibition of gelatinase is obtained by the addition of inhibitor to a known amount of gelatinase prior to application to the plates. The peroxidase activity increases proportionally with the inhibitory activity.
Plates were first coated with 10µg/ml avidin and 50µg/ml biotinylated gelatin (theoretically saturating the avidin binding sites). As the sensitivity of the assay is dependent on the detection of the minimal amount of degraded biotinylated gelatin, we investigated wether decreasing the amount of biotin-gelatin (50 µg/ml-23 ng/ml) bound to the avidin-coated (10µg/ml) plate increased the sensitivity of the assay. […] Thus it was verified whether a decrease in the avidin coating could make the assay more sensitive (Fig. 2). […] In all further examples plates were coated with 0.5 µg/ml avidin and 50 µg/ml gelatin-biotin.
The titration curves of gelatinase inhibition were always related to a blanc curve and this for enzyme concentrations within the slope of the curve (vertical dotted lines Fig. 3). The decrease in enzyme activity to which the inhibitor-incubated sample corresponded was defined as the inhibition factor (IF).

[1] = tetracycline concentration 1.67 mg/ml
[2] = tetracycline concentration 3.33 mg/ml
[3] = tetracycline concentration 3.33 mg/ml, HCl
[4] = tetracycline concentration 0,83 mg/ml

gelatinase B from neutrophils, sequence (P14780 94-707): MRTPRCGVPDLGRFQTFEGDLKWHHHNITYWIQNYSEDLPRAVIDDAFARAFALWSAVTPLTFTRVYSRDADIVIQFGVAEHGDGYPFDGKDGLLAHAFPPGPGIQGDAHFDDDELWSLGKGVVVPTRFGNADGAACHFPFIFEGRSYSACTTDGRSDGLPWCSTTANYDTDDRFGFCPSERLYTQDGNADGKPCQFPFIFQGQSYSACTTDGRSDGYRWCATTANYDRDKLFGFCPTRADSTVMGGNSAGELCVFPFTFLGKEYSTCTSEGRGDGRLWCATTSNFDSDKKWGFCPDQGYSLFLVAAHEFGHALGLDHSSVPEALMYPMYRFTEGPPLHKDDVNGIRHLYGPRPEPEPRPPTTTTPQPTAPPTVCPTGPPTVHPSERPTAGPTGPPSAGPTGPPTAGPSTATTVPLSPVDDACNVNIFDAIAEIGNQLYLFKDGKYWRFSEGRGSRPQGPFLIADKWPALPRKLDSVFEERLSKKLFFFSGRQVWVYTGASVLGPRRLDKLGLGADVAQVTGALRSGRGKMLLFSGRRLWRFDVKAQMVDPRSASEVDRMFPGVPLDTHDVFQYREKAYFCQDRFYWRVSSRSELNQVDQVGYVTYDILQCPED

Compound | Inhibition factor (IF) [1] | Inhibition factor (IF) [2] | gelatinase B inhibitory activity in the plate assay (in words) | Inhibition factor (IF) [4] | further results
4-epitetracycline HCl | 3 | – | – | – | –
7-aminominocycline HCl | – | precipitation | – | – | –
Cc1c2c(c(O)c3c(O)ccc(Cl)c13)C(=O)C1(O)C(O)=C(C(N)=O)C(=O)C(N(C)C)C1C2 (stereo not drawn) [4-epianhydrochlortetracycline HCl] | – | – | less active | – | Inhibition factor (IF) [3]: 3
Cc1c2c(c(O)c3c(O)cccc13)C(=O)C1(O)C(O)=C(C(N)=O)C(=O)C(N(C)C)C1C2 (stereo not drawn) [4-epianhydrotetracycline HCl] | 3 | precipitation | more active | 2 | –
CN(C)C1C(=O)C(C(N)=O)=C(O)C2(O)C(=O)C3=C(O)c4c(O)ccc(Cl)c4C(C)(O)C3CC12 (stereo not drawn) [4-epichlortetracycline HCl] | 9 | precipitation | less active | 3 | –
CN(C)c1ccc(O)c2c1C[C@H]1C[C@H]3[C@@H](N(C)C)C(O)=C(C(N)=O)C(=O)[C@@]3(O)C(O)=C1C2=O [4-epiminocycline HCl] | – | 3 | less active | – | –
CN(C)C1C(=O)C(C(N)=O)=C(O)C2(O)C(=O)C3=C(O)c4c(O)cccc4C(C)(O)C3C(O)C12 (stereo not drawn) [4-epioxytetracyline base] | 3 | 20 | more active | – | –
CN(C)[C@@H]1C(O)=C(C(N)=O)C(=O)[C@@]2(O)C(O)=C3C(=O)c4c(O)cccc4C[C@H]3C[C@@H]12.Cl [6-deoxy-6-demethyltetracycline HCl] | 5 | 8 | – | 3 | –
Cc1c2c(c(O)c3c(O)ccc(Cl)c13)C(=O)C1(O)C(O)=C(C(N)=O)C(=O)C(N(C)C)C1C2 (stereo not drawn) [anhydrochlortetracycline HCl] | – | – | – | – | Inhibition factor (IF) (tetracycline concentration 1.67 mg/ml, HCl): 2; Inhibition factor (IF) [3]: 6
CN(C)[C@@H]1C(O)=C(C(N)=O)C(=O)[C@@]2(O)C(O)=C3C(=O)c4c(O)ccc(Cl)c4[C@@](C)(O)[C@H]3C[C@@H]12 [chlortetracycline HCl] | 27 | 45 | – | 9 | gelatinase B inhibitory activity in the plate assay (in words) (listed as Chlortetracycline HCl, HCl): most potent inhibitor; gelatinase B inhibitory activity in the plate assay (in words) (listed as Chlortetracycline, HCl): more active as a gelatinase inhibitor than the antibiotically more potent minocycline; also recorded: much more active than tetracycline; also recorded: most active
CN(C)[C@@H]1C(O)=C(C(N)=O)C(=O)[C@@]2(O)C(O)=C3C(=O)c4c(O)ccc(Cl)c4[C@@H](O)[C@H]3C[C@@H]12 [demethylchlortetracycline HCl] | – | – | not active | – | –
C[C@H]1c2cccc(O)c2C(=O)C2=C(O)[C@]3(O)C(=O)C(C(N)=O)=C(O)[C@@H](N(C)C)[C@@H]3[C@@H](O)[C@@H]21 [doxycycline hyclate] | – | – | not active | – | –
CN(C)[C@@H]1C(=O)C(C(N)=O)=C(O)[C@@]2(O)C(=O)C[C@@H]([C@]3(C)OC(=O)c4c(O)ccc(Cl)c43)C[C@@H]12 [isochlortetracycline HCl] | – | 3 | – | – | –
C=C1c2cccc(O)c2C(=O)C2=C(O)[C@]3(O)C(=O)C(C(N)=O)=C(O)[C@@H](N(C)C)[C@@H]3[C@@H](O)[C@H]12 [metacycline HCl] | 8 | 27 | very active | 3 | –
CN(C)[C@@H]1C(O)=C(C(N)=O)C(=O)[C@@]2(O)C(O)=C3C(=O)c4c(O)cccc4[C@@](C)(O)[C@H]3C[C@@H]12 [tetracycline HCl] | 3 | 8 | – | – | –
